Here are results for five compounds from ChEMBL document CHEMBL6092198, “Coumarin-Quinazolinone based photosensitizers: Mitochondria and endoplasmic reticulum targeting for enhanced phototherapy via different cell death pathways” (Eur J Med Chem, 2024).

Data set [1] can be described thus: Photophysical property of the compound in water assessed as fluorescence quantum yield under 450 nm photoirradiation with blue light lamp by U-4100 spectrophotometric analysis. The arrangement: unit not given here. The note with it: buffer. Format: physicochemical.
Data set [2] in a line: Photophysical property of the compound in MeOH assessed as fluorescence quantum yield under 450 nm photoirradiation with blue light lamp by U-4100 spectrophotometric analysis. Format: physicochemical. More on the design: unit not given here.
Data set [3] in a line: Photophysical property of the compound assessed as singlet oxygen quantum yield under 15 W photoirradiation with blue LED light by EPR spectrophotometric analysis. The class given is physicochemical. More on the design: unit not given here.
Data set [4] in a line: Drug localization in endoplasmic reticulum of human HepG2 cells at 2 uM incubated for 2 hrs by ER-Tracker Blue staining based confocal fluorescence microscopy. Format: ADME, subcellular. The note with it: hepg2, 2 h.
For data set [5], the system named is HepG2. As to the kind of experiment: Cytotoxicity against human HepG2 cells assessed as cell viability incubated for 4 hrs under dark condition by MTT assay. The class given is functional, cell-based. As to conditions: HepG2, 4 h. (In general: Formazan colour is commonly taken as a measure of viable cells.)
Data set [6] can be described thus: Phototoxicity against human HepG2 cells assessed as cell viability preincubated with compound for 4 hrs followed by light irradiation with 450 nm blue LED lamp for 10 mins and measured after 24 hrs by MTT assay. Format: functional, cell-based. The note with it: HepG2, light or radiation study.
A short description of data set [7]: Phototoxic index, ratio of IC50 for cytotoxicity against human HepG2 cells incubated for 4 hrs under dark condition by MTT assay to IC50 for cytotoxicity against human HepG2 cells preincubated with compound for 4 hrs followed by light irradiation with 450 nm blue LED lamp for 10 mins and measured after 24 hrs by MTT assay. The class given is functional.
Data set [8] has as its system HepG2. As to the kind of experiment: Induction of apoptosis in human HepG2 cells assessed as chromatin condensation by measuring increase in blue fluorescence at 0.1 uM preincubated with compound for 4 hrs followed by light irradiation with 450 nm blue LED lamp for 10 mins and measured after 24 hrs by Hoechst 33342 staining based confocal microscopic analysis. The note with it: time 1690.0 min. Format: functional, cell-based.

Data set [9] has as its system HepG2. As to the kind of experiment: Induction of apoptosis in human HepG2 cells assessed as chromatin condensation by measuring increase in red fluorescence at 0.1 uM preincubated with compound for 4 hrs followed by light irradiation with 450 nm blue LED lamp for 10 mins and measured after 24 hrs by PI staining based confocal microscopic analysis. The class given is functional, cell-based. The note with it: time 1690.0 min.

Data set [10] has as its system HepG2. The data set is described as follows: Induction of ferroptosis in human HepG2 cells assessed as cell death preincubated with compound for 4 hrs followed by light irradiation with 450 nm blue LED lamp for 10 mins and measured after 24 hrs in presence of ferrostatin-1 by MTT assay. Format: functional, cell-based. As to conditions: time 1690.0 min.
Data set [11] concerns HepG2. As to the kind of experiment: Induction of ferroptosis in human HepG2 cells assessed as cell death preincubated with compound for 4 hrs followed by light irradiation with 450 nm blue LED lamp for 10 mins and measured after 24 hrs in presence of 50 uM ferrostatin-1 by MTT assay. Format: functional, cell-based. The note with it: time 1690.0 min.
For data set [12], the system named is HepG2. The data set is described as follows: Induction of ferroptosis in human HepG2 cells assessed as cell viability preincubated with compound for 4 hrs followed by light irradiation with 450 nm blue LED lamp for 10 mins and measured after 24 hrs in presence of necrostatin-1 by MTT assay. The class given is functional, cell-based. The note with it: time 1690.0 min.

Data set [13] deals with HepG2. As to the kind of experiment: Induction of ferroptosis in human HepG2 cells assessed as cell viability preincubated with compound for 4 hrs followed by light irradiation with 450 nm blue LED lamp for 10 mins and measured after 24 hrs in presence of 3-methyladenine by MTT assay. Format: functional, cell-based. The note with it: time 1690.0 min.
Data set [14] concerns HepG2. The data set is described as follows: Induction of ferroptosis in human HepG2 cells assessed as cell viability preincubated with compound for 4 hrs followed by light irradiation with 450 nm blue LED lamp for 10 mins and measured after 24 hrs in presence of chloroquine by MTT assay. The class given is functional, cell-based. The note with it: time 1690.0 min.
Data set [15] is described as follows: Drug localization in mitochondria of human HepG2 cells at 2 uM incubated for 2 hrs by MitoTracker red CMXRos staining based confocal fluorescence microscopy. Format: ADME. As to conditions: hepg2, 2 h.
Data set [16] has as its system HepG2. The data set is described as follows: Induction of apoptosis in human HepG2 cells assessed as chromatin condensation by measuring increase in blue fluorescence at 0.3 uM preincubated with compound for 4 hrs followed by light irradiation with 450 nm blue LED lamp for 10 mins and measured after 24 hrs by Hoechst 33342 staining based confocal microscopic analysis. The class given is functional, cell-based. As to conditions: time 1690.0 min.

In data set [17] the test system is HepG2. The data set is described as follows: Induction of apoptosis in human HepG2 cells assessed as chromatin condensation by measuring increase in red fluorescence at 0.3 uM preincubated with compound for 4 hrs followed by light irradiation with 450 nm blue LED lamp for 10 mins and measured after 24 hrs by PI staining based confocal microscopic analysis. Format: functional, cell-based. The note with it: time 1690.0 min.

Data set [18] has as its system HepG2. As to the kind of experiment: Induction of ferroptosis in human HepG2 cells assessed as downregulation of Keap1 expression preincubated with compound for 4 hrs followed by light irradiation with blue LED lamp for 10 mins and measured after 24 hrs in presence of Fer-1 by Western blot analysis. Format: functional, cell-based. The note with it: time 1690.0 min.

Data set [19] has as its system HepG2. As to the kind of experiment: Induction of ferroptosis in human HepG2 cells assessed as downregulation of Gpx4 expression preincubated with compound for 4 hrs followed by light irradiation with blue LED lamp for 10 mins and measured after 24 hrs in presence of Fer-1 by Western blot analysis. Format: functional, cell-based. The note with it: time 1690.0 min.

Data set [20] concerns HepG2. As to the kind of experiment: Induction of ferroptosis in human HepG2 cells assessed as downregulation of Fth1 expression preincubated with compound for 4 hrs followed by light irradiation with blue LED lamp for 10 mins and measured after 24 hrs in presence of Fer-1 by Western blot analysis. The class given is functional, cell-based. As to conditions: time 1690.0 min. On the technique in general: A western blot detects proteins with antibodies after separation by electrophoresis.

Data set [21] concerns HepG2. As to the kind of experiment: Induction of ferroptosis in human HepG2 cells assessed as cell viability preincubated with compound for 4 hrs followed by light irradiation with 450 nm blue LED lamp for 10 mins and measured after 24 hrs in presence of 50 uM Fer-1 by MTT assay relative to control. Format: functional. The note with it: time 1690 min; 28.17 h.
Data set [22] deals with HepG2. As to the kind of experiment: Induction of apoptosis in human HepG2 cells assessed as effect on PARP level preincubated with compound for 4 hrs followed by light irradiation with blue LED lamp for 10 mins and measured after 24 hrs by Western blot analysis. The class given is functional, cell-based. The note with it: time 1690.0 min.
Data set [23] has as its system HepG2. As to the kind of experiment: Induction of apoptosis in human HepG2 cells assessed as effect on caspase-3 level preincubated with compound for 4 hrs followed by light irradiation with blue LED lamp for 10 mins and measured after 24 hrs by Western blot analysis. The class given is functional, cell-based. As to conditions: time 1690.0 min.
The test system of data set [24] is HepG2. The data set is described as follows: Induction of apoptosis in human HepG2 cells assessed as increase in Bax expression preincubated with compound for 4 hrs followed by light irradiation with blue LED lamp for 10 mins and measured after 24 hrs by Western blot analysis. The note with it: time 1690.0 min. The class given is functional, cell-based.
Data set [25] deals with HepG2. As to the kind of experiment: Induction of apoptosis in human HepG2 cells assessed as change in Bcl-2 level preincubated with compound for 4 hrs followed by light irradiation with blue LED lamp for 10 mins and measured after 24 hrs by Western blot analysis. The class given is functional, cell-based. The note with it: time 1690.0 min.
The test system of data set [26] is HepG2. The data set is described as follows: Induction of apoptosis in human HepG2 cells assessed as reduction in Bcl-2/Bax ratio preincubated with compound for 4 hrs followed by light irradiation with blue LED lamp for 10 mins and measured after 24 hrs by Western blot analysis. Format: functional, cell-based. The note with it: time 1690.0 min.
Data set [27] has as its system HepG2. As to the kind of experiment: Induction of apoptosis in human HepG2 cells assessed as cytochrome C release from mitochondria preincubated with compound for 4 hrs followed by light irradiation with blue LED lamp for 10 mins and measured after 24 hrs by Western blot analysis. The class given is functional, cell-based. The note with it: time 1690.0 min.
In data set [28] the test system is HepG2. As to the kind of experiment: Induction of mitochondrial damage in human HepG2 cells assessed as change in mitochondrial morphology at 1 uM preincubated with compound for 4 hrs followed by light irradiation with blue LED lamp for 10 mins and measured after 24 hrs by confocal microscopic analysis. The class given is functional, cell-based. The note with it: time 1690.0 min.

The test system of data set [29] is Mitochondrial membrane. The data set is described as follows: Induction of mitochondrial membrane potential loss in human HepG2 cells at 3 uM incubated for 4 hrs in presence of light irradiation by TMRE staining based fluorescence microscopic analysis. The class given is cell membranes.
In data set [30] the test system is HepG2. The data set is described as follows: Antiproliferative activity against human HepG2 cells cultured as 3D spheroids assessed as inhibition of cell growth at 5 to 10 uM pretreated with 450 nm light irradiation and compound for 10 mins and measured at day 5 by fluorescence microscopic analysis. The class given is functional, cell-based. The note with it: dose 5-10 µM, time 7210.0 min.

Data set [31] relates to HepG2. The data set is described as follows: Antiproliferative activity against human HepG2 cells cultured as 3D spheroids assessed as inhibition of cell growth at 5 uM pretreated with 450 nm light irradiation and compound for 10 mins and measured at day 5 by fluorescence microscopic analysis. As to conditions: time 7210.0 min. Format: functional, cell-based.
Data set [32] is described as follows: Drug localization in nucleus of human HepG2 cells at 2 uM incubated for 2 hrs by […] staining based confocal fluorescence microscopy. The class given is ADME, subcellular. The note with it: hepg2, 2 h.
Data set [33] is described as follows: Drug localization in lysosome of human HepG2 cells at 2 uM incubated for 2 hrs by Lyso-Tracker staining based confocal fluorescence microscopy. The class given is ADME, subcellular. The note with it: hepg2, 2 h.

Molecules are shown by their SMILES. Activity calls are given as the source filed them. The rule behind the calls is not given here.

One may read the IC50 as the concentration that gives 50% inhibition. Consider `CCN(CC)c1ccc2cc(-c3nc4ccc(OCc5cn(CCNS(=O)(=O)c6ccc(C)cc6)nn5)cc4c(=O)[nH]3)c(=O)oc2c1`, for which the Activity in [1] is recorded as 7.55; in data set [2] it was 59.27; in data set [3] it was 30.08. For the same compound, in [4], the Drug uptake result is “Active”. The results for the IC50 in [5] and in [6] were 36.7 µM and 0.15 µM, respectively. For the same compound, the “Ratio IC50” value in data set [7] was found to be 244.93. The outcome in data set [8], in data set [9], in data set [10], in data set [11], in data set [12] and in data set [13] was Active. Also, the result in data set [14] was Active.
As for `CCN(CC)c1ccc2cc(-c3nc4ccc(OCc5cn(CCC[P+](c6ccccc6)(c6ccccc6)c6ccccc6)nn5)cc4c(=O)[nH]3)c(=O)oc2c1.[Br-]`, the Activity in [1] was 8.72; in data set [2] it was 69.6; in data set [3], 27.22; in data set [21] it was about 70%. The Drug uptake entry in data set [15] was “Active”. In addition, the IC50 was found to be 46.7 µM in data set [5] and 0.28 µM in data set [6]. Further, the “Ratio IC50” value in data set [7] stood at 166.89. For the same compound, the outcome in [16], in data set [17], in data set [18], in data set [19], in [20] and in data set [22] was Active. The outcome in data set [23], in data set [24], in data set [26], in [27], in [28] and in data set [29] was Active. Further, the outcome in data set [30] and in data set [31] was Active. Moreover, in data set [25], the result was inactive.
Take `CCN(CC)c1ccc2cc(-c3nc4ccc(OCCN5CCCCC5)cc4c(=O)[nH]3)c(=O)oc2c1`: the values for the Activity in [1], in data set [2] and in [3] were 15.68, 47.65 and 24.5, respectively. For the same compound, the Drug uptake entry in data set [32] is “Active”. Besides, the IC50 in data set [5] was found to be 3.95 µM; in [6] it was 0.11 µM. For the same compound, the “Ratio IC50” value in [7] was determined as 35.9.
Consider `CCN(CC)c1ccc2cc(-c3nc4ccc(OCCCN5CCOCC5)cc4c(=O)[nH]3)c(=O)oc2c1`, for which the figures for the Activity in data set [1], in data set [2] and in data set [3] were 31.49, 79.66 and 13.06, respectively. The Drug uptake entry in data set [33] was “Active”. The IC50 in data set [5] amounted to 12.4 µM; in data set [6] it was 0.38 µM. The “Ratio IC50” value in [7] came to 32.52.
Regarding `CCN(CC)c1ccc2cc(-c3nc4ccc(O)cc4c(=O)[nH]3)c(=O)oc2c1`, the Activity in data set [1] was under 5; in data set [2] it was 36.66; in [3] it was 12.86. Moreover, the IC50 in data set [5] turned out to be 57.6 µM; in [6], 24.5 µM. Moreover, the “Ratio IC50” value in [7] stood at 2.35.
